Here are results for 8 compounds from PMC3794980, “Identification of Conserved and HLA Promiscuous DENV3 T-Cell Epitopes” (PLoS Neglected Tropical Diseases, 2013).

In test [1] the target is T1, HLA-A*0201 (HLA-A2:Ig fusion protein) (Homo sapiens, UniProt P04439, D140Y/D185E/D98H/E176V/E277Q/G131W/G231S/I119V/I121R/I166T/I218V/L300P/L318F/N151K/N90K/P208A/P217A/Q86G/Q94H/R138H/R169H/T345S).
T1 construct: two extracellular portions of the major histocompatibility complex (MHC) class I HLA-A2 domains fused to the […] of a mouse IgG1 antibody; purchased BD Biosciences (HLA-A2:Ig); Fitzgerald Industries (β2-microglobulin)
Description: Competitive binding assay using HLA-A2:Ig fusion protein (fluorescence polarization). The method, then: The labeled peptide ([…]) was commercially synthesized by GenScript Corporation as a reference peptide for the binding assay. A fluorescein moiety was introduced into position P8 of the designed peptide ([…]). […] The lyophilized labeled peptide was diluted in 100% DMF (Dimethylformamide) to a final concentration of 10 mM. Subsequent dilutions were carried out using 0.5 mg/ml bovine-γ-globulin (BGG) in 1×PBS.
Soluble HLA-A2:Ig dimer complexes were obtained from BD Biosciences. This fusion protein consists of two extracellular portions of the major histocompatibility complex (MHC) class I HLA-A2 domains fused to the […] of a mouse IgG1 antibody. Additional β2-microglobulin (Fitzgerald Industries) was added to the binding assays to retain the fusion protein in a functional state. […] The competitive binding assays were carried out at room temperature for an incubation period of 3 days.
Both labeled and unlabeled peptides were added to the reaction mixture before the HLA-A2:Ig fusion protein, ensuring that both peptides were presented simultaneously to the HLA molecule. To avoid peptide photobleaching, the reaction mixture was incubated within aluminum foil covered microcentrifuge tubes. After the 3 days incubation period, 20 µl of the reaction mixture was loaded into individual wells of a black, non-binding surface (NBS) 384 well plate (Corning). Controls included only buffer (blank), protein and pFITC. Each experiment was performed in quadruplicate and reported as the mean with standard deviation.
On the technique in general: Polarisation of emitted light reports the rotation of a fluorescent probe.

The target of test [2] is DRB1*1302 (Homo sapiens, UniProt P01903+P01911, A100E/A169T/K41T/L162R/M171V/P40S/Q125H/Q178H/Q39Y/Q99D/R42S/S66N/T262R/V115G/W38E/Y61H). Briefly: biochemical. It is filed as binding. Conditions: competitive inhibition of radiolabeled standard peptide, read-out: Binding Affinity (nM) DRB1*1302.
In test [3] the target is DRB3*0101 (Homo sapiens, UniProt P01903+P79483). Briefly: biochemical. In kind it is binding.
Test [4] addresses DRB1*1501 (Homo sapiens, UniProt P01903+P01911). Description: biochemical. It is filed as binding.
For test [5], the target named is DRB1*0701 (Homo sapiens, UniProt P01903+P01911, A100R/A102G/A103Q/D57E/D86V/E43K/F76Y/K127E/L162R/M171V/P40G/Q125H/Q99D/R33Q/R42Y/R54Q/S133A/S66F/T210M/V115G/Y107V/Y59L/Y89S). Briefly: biochemical. It is filed as binding.
In test [6] the target is DRB1*0301 (Homo sapiens, UniProt P01903+P01911, A100K/A102G/A103R/A169T/F55Y/I96L/K41T/L162R/M171V/P40S/Q125H/Q178H/Q39Y/R42S/S66N/T106N/T262R/W38E/Y61H). Briefly: biochemical. In kind it is binding.
Test [7] addresses DRB1*0802 (Homo sapiens, UniProt P01903+P01911, A100R/A103L/A169T/F76Y/H45Y/I96F/K41T/L162R/M171V/P40S/Q125H/Q178H/Q39Y/Q99D/R218S/R42G/S66Y/V115G/W38E). Description: biochemical. It is filed as binding.
Test [8] addresses DRB1*0401 (Homo sapiens, UniProt P01903+P01911, A100K/A169T/F76Y/I96L/K127E/L162R/M171V/N62H/P40V/Q125Y/R42H/S133A/S149N/S66Y/V115G/V209L/W38E). Description: biochemical. In kind it is binding.
The target of test [9] is DRB1*0405 (Homo sapiens, UniProt P01903+P01911, A100R/A169T/D86S/F76Y/I96L/K127E/L162R/M171V/N62H/P40V/Q125Y/R42H/S133A/S149N/S66Y/V115G/V209L/W38E). Briefly: biochemical. It is filed as binding.
Test [10] has as its target DRB5*0101 (Homo sapiens, UniProt P01903+Q30154). Briefly: biochemical. It is filed as binding.
Test [11] addresses DRB1*0901 (Homo sapiens, UniProt P01903+P01911, A100R/A103E/D57H/D86V/F55Y/F60I/F76Y/I96F/K127E/L162R/M171V/P40D/Q125H/Q99R/R33Q/R42F/S133A/S66N/T210M/V115G/W38K/Y107V/Y59G/Y89S). Description: biochemical. In kind it is binding. To be noted: competitive inhibition of radiolabeled standard peptide, read-out: Binding Affinity (nM) DRB1*0901.
Test [12] addresses DRB1*1101 (Homo sapiens, UniProt P01903+P01911, A100R/A169T/A87E/I96F/K41T/L162R/M171V/P40S/Q125H/Q178H/Q39Y/Q99D/R42S/S66Y/T262R/V115G/W38E). Briefly: biochemical. It is filed as binding.
Test [13] addresses DRB1*0101 (Homo sapiens, UniProt P01903+P01911, A100R/D57E/F55L/F60I/F76Y/I96L/L162R/M171V/P40L/Q125E/R42F/V115G/Y59C). Description: biochemical. It is filed as binding.
Test [14] concerns the target DRB4*0101 (Homo sapiens, UniProt P01903+P13762, G164S). Description: biochemical. It is filed as binding.
In test [15] the target is DRB1*0404 (Homo sapiens, UniProt P01903+P01911, A100R/A169T/F76Y/I96L/K127E/L162R/M171V/N62H/P40V/Q125Y/R42H/S133A/S149N/S66Y/V209L/W38E). Briefly: biochemical. In kind it is binding.
Where [16] appears, read: predicted 9-mer tested, fluorescence polarization competition with fluorescein-labeled […], room temperature, 3 days, quadruplicate, read-out: Binding affinity.

Read-outs that look alike come from different tables or passages of the source. Where no end group is shown, it is not given here.

Chain of DRB1*1101 (P01903 26-254, other chains not shown): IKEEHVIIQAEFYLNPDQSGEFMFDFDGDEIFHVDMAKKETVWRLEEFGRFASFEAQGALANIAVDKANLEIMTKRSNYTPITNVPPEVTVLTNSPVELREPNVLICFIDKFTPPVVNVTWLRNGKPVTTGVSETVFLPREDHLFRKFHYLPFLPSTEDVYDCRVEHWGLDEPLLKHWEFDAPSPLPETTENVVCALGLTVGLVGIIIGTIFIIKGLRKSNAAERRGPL
Chain of DRB1*1302 (P01903 26-254 limits assumed, other chains not shown): as the sequence (P01903 26-254, other chains not shown) above
Chain of DRB1*0301 (P01903 26-254, other chains not shown): as above

Regarding GLFGKGSLV, the IC50 in [1] (setting [16]) was 0.0029 µM.
In test [1], KLTDWDFVV [DENV4] registered an IC50 of 0.061 µM.
Take EGKVVQYENLKYTVI [Envelope 126-140]: the IC50 in test [2] ('-' distinct from ND) is 1480 nM; in test [3], 2.07 µM; in test [4], 0.021 µM; in test [5], 2.31 µM; in test [6] it was 0.692 µM; in [7], 0.037 µM. The IC50 in test [8] stood at 1.38 µM; in test [9] it was 0.09 µM; in test [10] it was 2.47 µM; in test [11] ('-' distinct from ND), 3860 nM; in test [12], 8.98 µM; in test [13], 0.98 µM. The figures for the IC50 in test [14] and in [15] were 0.059 µM and 6.05 µM, respectively.
Take `CC[C@H](C)[C@H](NC(=O)[C@H](Cc1c[nH]c2ccccc12)NC(=O)[C@H](Cc1ccc(O)cc1)NC(=O)CNC(=O)[C@H](CCSC)NC(=O)[C@H](CC(=O)O)NC(=O)[C@H](C)NC(=O)[C@H](Cc1c[nH]cn1)NC(=O)[C@@H](NC(=O)[C@H](C)N)C(C)C)C(=O)N[C@@H](CCC(=O)O)C(=O)N[C@@H](CO)C(=O)N[C@@H](CCC(N)=O)C(=O)N[C@@H](CCCCN)C(=O)N[C@@H](CC(N)=O)C(=O)O` [NS1 193-207]: the IC50 in test [2] ('-' distinct from ND) came to 33 nM; in [3], 0.024 µM; in test [4], 6.34 µM; in test [5] it was 7.97 µM; in test [6], 2.59 µM; in test [7], 12.9 µM. The IC50 was 3.54 µM in test [8]; 3.24 µM in test [9]; 10.4 µM in test [10]; 9890 nM in test [11] ('-' distinct from ND); 13.9 µM in test [12]; 1.2 µM in test [13]. The IC50 was found to be 0.18 µM in test [14] and 5.81 µM in test [15].
Consider `CC(C)C[C@H](NC(=O)[C@@H](N)CCCCN)C(=O)N[C@@H](CC(N)=O)C(=O)N[C@@H](CC(=O)O)C(=O)N[C@@H](Cc1c[nH]c2ccccc12)C(=O)N[C@@H](CC(=O)O)C(=O)N[C@@H](Cc1ccccc1)C(=O)N[C@H](C(=O)N[C@H](C(=O)O)C(C)C)C(C)C` [NS3_399–407], for which the IC50 in test [1] (setting [16]) is 0.11 µM.
For `CSCC[C@H](NC(=O)[C@@H](NC(=O)[C@H](Cc1ccccc1)NC(=O)[C@H](CCCNC(=N)N)NC(=O)[C@H](CC(N)=O)NC(=O)[C@H](CC(C)C)NC(=O)[C@H](CC(C)C)NC(=O)[C@H](CC(C)C)NC(=O)[C@H](CCCNC(=N)N)NC(=O)[C@H](CO)NC(=O)[C@@H](NC(=O)[C@@H](N)CCSC)C(C)C)[C@@H](C)O)C(=O)N[C@H](C(=O)N[C@@H](Cc1c[nH]cn1)C(=O)N[C@@H](CCCNC(=N)N)C(=O)N[C@@H](CCCNC(=N)N)C(=O)O)[C@@H](C)O` [NS5 233-248], the IC50 in test [2] (DRB1*1302) was determined as 34 nM; in test [3], 2.24 µM; in test [4], 0.307 µM; in test [5], 0.097 µM; in [6], 0.327 µM; in test [7], 0.159 µM. Further, the IC50 in test [8] worked out at 0.057 µM; in [9] it was 0.699 µM; in test [11] (DRB1*0901), 569 nM; in [12], 0.016 µM; in test [13], 0.108 µM; in test [14], 0.617 µM. Moreover, the IC50 in test [15] turned out to be 1.07 µM.
As for `CC(C)C[C@H](NC(=O)[C@H](C)NC(=O)[C@H](CC(C)C)NC(=O)[C@@H]1CCCN1)C(=O)N[C@@H](CCCCN)C(=O)N[C@@H](CCC(=O)O)C(=O)N[C@@H](Cc1ccccc1)C(=O)N[C@@H](CCCCN)C(=O)N[C@@H](CC(=O)O)C(=O)N[C@@H](Cc1ccccc1)C(=O)N[C@@H](C)C(=O)N[C@@H](C)C(=O)NCC(=O)N[C@@H](CCCNC(=N)N)C(=O)N[C@@H](CCCCN)C(=O)O` [NS3 605-619], the IC50 in test [2] (DRB1*1302) stood at 19600 nM; in test [3], 3.38 µM; in test [4], 0.028 µM; in test [5], 3.45 µM; in [6], 4.44 µM; in test [7], 0.037 µM. The IC50 in test [8] was 4.73 µM; in [9], 5.55 µM; in [10] it was 0.02 µM; in [11] (DRB1*0901) it was 9320 nM; in test [12], 8.89 µM; in test [13], 4.35 µM. The IC50 in test [14] came out at 1.36 µM; in test [15] it was 2.22 µM.
Take RTNDWDFVV [DENV2 (1)]: in test [1] (read-out: IC50), the IC50 stood at 0.167 µM.
